In PMC4911353, “Pharmacologic Inhibition of Host Phosphodiesterase-4 Improves Isoniazid-Mediated Clearance of Mycobacterium tuberculosis” (Frontiers in Immunology, 2016):

Assays:
[1] = system: Mycobacterium tuberculosis CDC1551; format: in vivo; conditions: B6D2F1 mice, 50 mg/kg daily
[2] = system: lung granulomas; experiment: Histology and morphometric measurement of lung granulomas in Mtb-infected mice; format: in vivo
Experimental: Formalin-fixed lung tissues of Mtb-infected mice were paraffin-embedded, cut into […] sections, and stained with hematoxylin and eosin (H&E) or acid fast staining by Ziehl–Neelsen (ZN) method to visualize host cells and Mtb, respectively (IDEXX-RADIL Laboratories Inc., MO, USA) as described in Ref. ([11]). Stained sections were photographed in a Nikon Microphot-FX photomicrographic system and analyzed with NIS-Elements F3.0 software (Nikon Instruments Inc., NY, USA). Lung granuloma size was morphometrically measured using PathScan Enabler IV scanner (Meyer Instruments, Houston, TX, USA) and SigmaScan Pro software (Systat Software, Inc., CA, USA). Histopathologic analysis and morphometry were performed by an experienced pathologist blinded to the sample identity.

[3] = system: Mtb; conditions: mouse pulmonary TB model; cited from earlier work

SMILES | Change in lung CFUs from 84 to 112 days postinfection [1] | Lesion area (granuloma size) versus untreated mice ([2]; 28 days postinfection) | Granuloma size versus untreated group ([2]; 112 days postinfection) | Impact on antibiotic-mediated bacillary clearance [3]
NNC(=O)c1ccncc1 [INH, isoniazid] | no significant decline | significant differences | significant reduction | 
COc1ccc(C2CNC(=O)C2)cc1OC1CCCC1 (centres unmarked) [rolipram] |  |  |  | no impact
COc1ccc([C@]2(C#N)CC[C@@H](C(=O)O)CC2)cc1OC1CCCC1 [cilomilast] |  |  |  | no impact
